Values of other authors, collected in patent publication US6562605B1, “Extraction of water soluble biomaterials from fluids using a carbon dioxide/surfactant mixture” (Genencor International, Inc., priority 1995, dated 2003).
Read-outs that look alike come from different tables or passages of the source.

[1] = to 388 bar, 50° C. printed at first prior art line

## CCCCCCCCS(=O)(=O)[O-].[Na+] [Alkyl sulfonate (Niacet, NAS 08)]
To 585 bar
  Solubility in carbon dioxide: insoluble to 585 bar

## Sorbitan monostearate [Sorbitan monostearate (Fluka, Span 60)]
At 377 bar
  Solubility in carbon dioxide: slightly soluble at 377 bar

## Sorbitan trioleate [Sorbitan trioleate (Fluka, Span 80)]
At 377 bar
  Solubility in carbon dioxide: slightly soluble at 377 bar

## CCCCCCS(=O)(=O)[O-].[Na+] [Alkyl sulfonate (C6, sodium salt, Fluka)]
[1]
  Solubility in carbon dioxide: insoluble to 388 bar (50° C.)

## CCCCCCCCCCCCCC[N+](C)(C)C.[Br-] [Tetradecyl trimethyl ammonium bromide]
[1]
  Solubility in carbon dioxide: insoluble to 388 bar
